From US8338565B2, “Macrocyclic compounds for inhibition of tumor necrosis factor alpha” (Ensemble Therapeutics Corporation, priority 2008, dated 2012)
Numbered stars: 1 amine (or outer) side, 2 acyl side, 3 side chain; on linkers, the order of the positions; unused ones are H or OH. Bridge positions count the residues as written; N and C are the ends. Square brackets hold non-standard residues; d marks the D form. Peptide text beside a SMILES is read from it. * marks the point of attachment. dAla(benzothien-2-yl) = N[C@H](Cc1cc2ccccc2s1)C(=O)O; Phe(4-CF3) = N[C@@H](Cc1ccc(C(F)(F)F)cc1)C(=O)O; dPhe(3-CN) = N#Cc1cccc(C[C@@H](N)C(=O)O)c1; Bip = N[C@@H](Cc1ccc(-c2ccccc2)cc1)C(=O)O; Phe(4-NH2) = Nc1ccc(C[C@H](N)C(=O)O)cc1; dPhe(4-F) = N[C@H](Cc1ccc(F)cc1)C(=O)O; d(hPhe) = N[C@H](CCc1ccccc1)C(=O)O; dNMeF = CN[C@H](Cc1ccccc1)C(=O)O; 2Thi = N[C@@H](Cc1cccs1)C(=O)O; d2Thi = N[C@H](Cc1cccs1)C(=O)O; dPhg = N[C@@H](C(=O)O)c1ccccc1; Suc = O=C(CCC(=O)[*:2])[*:1]; NMeA = CN[C@@H](C)C(=O)O; Aib = CC(C)(N)C(=O)O; NHCH2CH2OH = OCCN*; GABA = NCCCC(=O)O; tBu = CC(C)(C)*

Molecular target: T1, TNFα / TNFα receptor (TNFα R1/Fc) (Homo sapiens, UniProt P01375)
T1 construct: purchased R&D Systems
Test: Inhibition of binding of TNFα to the TNFα receptor (plate ELISA competition)
Settings: Table 2; read-out: Activity (IC50, inhibition of TNFα binding to TNFα R1/Fc)
Experimental: The compounds listed in Table 2 below were assayed for ability to inhibit binding of TNFα to the TNFα receptor (TNFα R1/Fc). The assays were performed as described in the following procedure: TNFα (R&D Systems) was coated on high binding plate wells (Corning 96-well) at a single uniform concentration of 15 nM, 100 μL/well in PBS. The coating proceeded for 30 minutes at 37° C. then 10 minutes at 4° C. The coated plate was washed with PBST, then 250 μL/well of blocking solution (PBST 0.1% BSA, bovine serum albumin) was added and incubation proceeded for 30-45 minutes at room temperature with agitation. The solution phase competition proceeded separately with the dilutions of test compound in PBST (phosphate buffered saline with Tween 20), 2% DMSO in a polypropylene plate (Corning 96-well storage plate) with a single concentration, 8.33 nM of the high affinity receptor for TNFα (R&D Systems). This solution phase incubation proceeded for 30 minutes at room temperature with agitation and was then added to the washed TNFα coated assay plate, 100 μL/well, and was incubated for a further 30 minutes at room temperature with agitation. The assay plate was washed and 100 μL goat anti-human IgG (Fc) HRP labeled antibody in PBST, 13 pM, (KPL Cat#04-10-2) was added to each well. This incubation proceeded for 25-30 minutes at room temperature with agitation. Following this incubation step, the plate was washed and a 100 μL TMB solution (SUREBLUE™ TMB Peroxidase substrate, KPL) was added per well and allowed to stand approximately 3-5 minutes for development. The TMB reaction was stopped with the addition of 0.5N HCl and then the plate was read for absorbance at 450 nm.

T1 sequence (P01375 77-233 limits assumed, species assumed): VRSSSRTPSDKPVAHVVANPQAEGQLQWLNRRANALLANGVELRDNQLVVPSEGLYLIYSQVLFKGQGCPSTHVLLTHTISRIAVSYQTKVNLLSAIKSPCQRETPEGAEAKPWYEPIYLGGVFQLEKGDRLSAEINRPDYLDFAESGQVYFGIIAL

| IC50 | SMILES |
| --- | --- |
| > 100 µM | O=C1CCC(=O)N[C@H](Cc2cccs2)C(=O)N[C@@H](Cc2ccc(-c3ccccc3)cc2)C(=O)N[C@H](Cc2ccccc2)C(=O)Nc2ccc(cc2)C[C@@H](C(=O)O)N1 [Compound 549] |
| < 10 µM | O=C1COc2ccc(cc2)C[C@@H](C(=O)N[C@@H](CCc2ccccc2)C(=O)O)NC(=O)[C@H](CCc2ccccc2)NC(=O)[C@@H](Cc2ccc(-c3ccccc3)cc2)NC(=O)[C@H](Cc2ccc(-c3ccncc3)cc2)N1 [Compound 623] |
| < 10 µM | O=C(O)[C@@H]1Cc2ccc(cc2)NC(=O)[C@H](O)[C@@H](O)C(=O)N[C@H](Cc2cccs2)C(=O)N[C@@H](Cc2ccc(-c3ccccc3)cc2)C(=O)N[C@H](Cc2cccs2)C(=O)N1 [Compound 283] |
| > 100 µM | O=C1CCC(=O)N[C@H](Cc2cccs2)C(=O)N[C@@H](Cc2cccs2)C(=O)N[C@H](Cc2ccccc2)C(=O)N[C@H](C(=O)O)Cc2ccc(cc2)N1 [Compound 97] ([d2Thi][2Thi][dF][Phe(4-NH2)]-OH; linker N-4 via Suc) |
| > 100 µM | CC(C)(C)Oc1ccc(C[C@@H]2NC(=O)[C@@H](Cc3cccs3)NC(=O)CCC(=O)Nc3ccc(cc3)C[C@@H](C(=O)O)NC(=O)[C@@H](Cc3ccccc3)NC2=O)cc1 [Compound 86] ([d2Thi]Y(tBu)[dF][Phe(4-NH2)]-OH; linker N-4 via Suc) |
| 30 to 100 µM | O=C1CCC(=O)N[C@H](Cc2cc3ccccc3s2)C(=O)N[C@@H](Cc2ccc(C(F)(F)F)cc2)C(=O)N[C@H](Cc2ccccc2)C(=O)N[C@H](C(=O)O)Cc2ccc(cc2)N1 [Compound 164] ([dAla(benzothien-2-yl)][Phe(4-CF3)][dF][Phe(4-NH2)]-OH; linker N-4 via Suc) |
| 30 to 100 µM | O=C(O)[C@@H]1Cc2ccc(cc2)NC(=O)[C@H](O)[C@@H](O)C(=O)N[C@H](Cc2cccs2)C(=O)N[C@@H](Cc2ccc(-c3ccc(F)cc3)cc2)C(=O)N[C@H](Cc2ccccc2)C(=O)N1 [Compound 334] |
| 10 to 30 µM | N#Cc1cccc(C[C@H]2NC(=O)CCC(=O)Nc3ccc(cc3)C[C@@H](C(=O)O)NC(=O)[C@@H](Cc3ccccc3)NC(=O)[C@H](Cc3ccc(C(F)(F)F)cc3)NC2=O)c1 [Compound 130] ([dPhe(3-CN)][Phe(4-CF3)][dF][Phe(4-NH2)]-OH; linker N-4 via Suc) |
| 10 to 30 µM | C[C@@H](C(=O)O)N(C)C(=O)[C@@H]1Cc2ccc(cc2)NC(=O)CCC(=O)N[C@H](Cc2cccs2)C(=O)N[C@@H](Cc2ccc(-c3ccccc3)cc2)C(=O)N[C@H](Cc2ccccc2)C(=O)N1 [Compound 30] ([d2Thi][Bip][dF][Phe(4-NH2)][NMeA]-OH; linker N-4 via Suc) |
| > 100 µM | O=C1CCC(=O)N[C@H](c2ccccc2)C(=O)N[C@@H](Cc2ccc(-c3ccccc3)cc2)C(=O)N[C@H](Cc2ccccc2)C(=O)N[C@H](C(=O)O)Cc2ccc(cc2)N1 [Compound 120] ([dPhg][Bip][dF][Phe(4-NH2)]-OH; linker N-4 via Suc) |
| > 100 µM | O=C1N[C@@H](C(=O)O)Cc2ccc(cc2)NC(=O)[C@H](O)[C@@H](O)C(=O)N[C@@H](Cc2cccs2)C(=O)N[C@H](Cc2ccc(-c3ccccc3)cc2)C(=O)N[C@H]1Cc1ccccc1 [Compound 279] |
| 10 to 30 µM | O=C(O)C[C@H](Cc1ccccc1)NC(=O)[C@@H]1Cc2ccc(cc2)OCC(=O)N[C@@H](Cc2cccs2)C(=O)N[C@H](Cc2ccc(-c3ccccc3)cc2)C(=O)N[C@@H](CCc2ccccc2)C(=O)N1 [Compound 485] |
| < 10 µM | O=C1COc2ccc(cc2)C[C@@H](C(=O)O)NC(=O)[C@H](Cc2ccc(-c3ccncc3)cc2)NC(=O)[C@@H](Cc2ccc(-c3ccccc3)cc2)NC(=O)[C@H](Cc2cccs2)N1 [Compound 634] |
| 10 to 30 µM | O=C(O)[C@@H]1Cc2ccc(cc2)NC(=O)[C@H](O)[C@@H](O)C(=O)N[C@H](Cc2ccccc2)C(=O)N[C@@H](Cc2ccc(-c3ccccc3)cc2)C(=O)N[C@H](CCc2ccccc2)C(=O)N1 [Compound 245] |
| < 10 µM | O=C1COc2ccc(cc2)C[C@@H](C(=O)O)NC(=O)[C@H](Cc2ccc(F)cc2)NC(=O)[C@@H](Cc2ccc(-c3ccccc3)cc2)NC(=O)[C@H](Cc2ccncc2)N1 [Compound 637] |
| < 10 µM | CC(C)(NC(=O)[C@@H]1Cc2ccc(cc2)NC(=O)CCC(=O)N[C@H](Cc2cccs2)C(=O)N[C@@H](Cc2ccc(-c3ccccc3)cc2)C(=O)N[C@H](Cc2ccccc2)C(=O)N1)C(=O)O [Compound 25] ([d2Thi][Bip][dF][Phe(4-NH2)][Aib]-OH; linker N-4 via Suc) |
| < 10 µM | O=C1COc2ccc(cc2)C[C@@H](C(=O)NCCCS(=O)(=O)O)NC(=O)[C@H](CCc2ccccc2)NC(=O)[C@@H](Cc2ccc(-c3ccccc3)cc2)NC(=O)[C@H](Cc2ccncc2)N1 [Compound 599] |
| > 100 µM | O=C1CCC(=O)N[C@H](Cc2ccc(F)cc2)C(=O)N[C@@H](Cc2ccc(C(F)(F)F)cc2)C(=O)N[C@H](Cc2ccccc2)C(=O)N[C@H](C(=O)O)Cc2ccc(cc2)N1 [Compound 134] ([dPhe(4-F)][Phe(4-CF3)][dF][Phe(4-NH2)]-OH; linker N-4 via Suc) |
| 30 to 100 µM | O=C1COc2ccc(cc2)C[C@@H](C(=O)O)NC(=O)[C@@H](CCc2ccccc2)NC(=O)[C@H](Cc2ccc(C(F)(F)F)cc2)NC(=O)[C@@H](CCc2ccccc2)N1 [Compound 151] |
| > 100 µM | CN1C(=O)[C@H](Cc2ccc(-c3ccccc3)cc2)NC(=O)[C@@H](Cc2cccs2)NC(=O)CCC(=O)Nc2ccc(cc2)C[C@@H](C(=O)O)NC(=O)[C@H]1Cc1ccccc1 [Compound 57] ([d2Thi][Bip][dNMeF][Phe(4-NH2)]-OH; linker N-4 via Suc) |
| < 10 µM | O=C1COc2ccc(cc2)C[C@@H](C(=O)O)NC(=O)[C@H](CCc2ccccc2)NC(=O)[C@@H](Cc2ccc(-c3ccccc3)cc2)NC(=O)[C@H](Cc2ccc(-c3ccc(F)cc3)cc2)N1 [Compound 698] |
| < 10 µM | O=C1COc2ccc(cc2)C[C@@H](C(=O)O)NC(=O)[C@H](CCc2ccccc2)NC(=O)[C@@H](Cc2ccc(-c3ccccc3)cc2)NC(=O)[C@H](Cc2c[nH]c3ccccc23)N1 [Compound 734] |
| < 10 µM | O=C1COc2ccc(cc2)C[C@@H](C(=O)N[C@H](Cc2ccccc2)C(=O)O)NC(=O)[C@H](Cc2ccccc2F)NC(=O)[C@@H](Cc2ccc(-c3ccccc3)cc2)NC(=O)[C@H](Cc2cccs2)N1 [Compound 587] |
| > 100 µM | O=C(O)CCCNC(=O)[C@@H]1Cc2ccc(cc2)NC(=O)CCC(=O)N[C@H](CCc2ccccc2)C(=O)N[C@@H](Cc2ccc(-c3ccccc3)cc2)C(=O)N[C@H](Cc2ccccc2)C(=O)N1 [Compound 354] ([d(hPhe)][Bip][dF][Phe(4-NH2)][GABA]-OH; linker N-4 via Suc) |
| 10 to 30 µM | O=C1COc2ccc(cc2)C[C@@H](C(=O)O)NC(=O)[C@H](CCc2ccccc2)NC(=O)[C@H](Cc2ccc(-c3ccccc3)cc2)NC(=O)[C@H](Cc2cccs2)N1 [Compound 254] |
| < 10 µM | O=C1COc2ccc(cc2)C[C@@H](C(=O)O)NC(=O)[C@H](CCc2ccccc2)NC(=O)[C@@H](Cc2ccc(-c3ccccc3)cc2)NC(=O)[C@H](Cc2ccc(C(F)(F)F)cc2)N1 [Compound 691] |
| > 100 µM | O=C1CCC(=O)N[C@H](Cc2cccs2)C(=O)N[C@@H](Cc2ccc(-c3ccccc3)cc2)C(=O)N[C@H](Cc2ccccc2)C(=O)N[C@H](C(=O)NCCO)Cc2ccc(cc2)N1 [Compound 205] ([d2Thi][Bip][dF][Phe(4-NH2)]-NHCH2CH2OH; linker N-4 via Suc) |
